# Experimental data published in US9120789B2, “1-(5-tert-butyl-2-phenyl-2H-pyrazol-3-yl)-3-[2-fluoro-4-(1-methyl-2-oxo-2,3-dihydro-1H-imidazo[4,5-b]pyridin-7-yloxy)-phenyl]-urea and related compounds and their use in therapy” (CANCER RESEARCH TECHNOLOGY LIMITED, priority 2010, dated 2015).
# Tests used:
# [1] = test system: SW620 colorectal carcinoma cell line (mutant RAS); assay: Assay C - SRB cell proliferation assay, SW620; format: cell-based; details: Homo sapiens, SW-620, 120 h; SW620, 5 days growth
# Experimental: (§1) Values for the blank (no cells) are subtracted from all values. The DMSO controls are set as 100% activity and assay points (the response) are calculated as a percentage of the DMSO control. Data are plotted using Graphpad Prism software and a non-linear regression line is calculated using a variable slope sigmoidal dose-response equation: Y=Bottom+[Top−Bottom]/[1+10^((Log EC50−X)*HillSlope)] where X is the logarithm of concentration and Y is the response). The IC50 generated by this procedure is the concentration of the drug that produces a percentage control fluorescence value midway between the saturation, and zero-effect plateaus. Three independent assays are usually performed and the mean IC50 is reported. Biological Methods—Assay C—SRB Cell Proliferation Assay (SRB GI50)
# (§2) Cell lines (e.g., WM266.4 and A375M melanoma cell lines; SW620 colorectal carcinoma cell line) are routinely cultured in DMEM or RPMI1640 supplemented with 10% foetal bovine serum, at 37° C., in 10% CO2 water saturated atmosphere. Cultures are maintained in exponential growth phase by sub-culturing before having become confluent (3-5 day intervals). Single cell suspensions are prepared by harvesting an 80 cm^2 tissue culture flask with 5 mL commercial trypsin EDTA. After 5 minutes, the detached cells are mixed with 5 mL fully complemented culture medium and centrifugally pelleted (1000 rpm for 7 minutes). After aspirating the supernatant, the cell pellet is re-suspended in 10 mL fresh medium and the cells fully disaggregated by drawing the whole volume up/down 5 times through a 19-gauge needle. The concentration of the cells is determined using a haemocytometer ( 1/10 dilution). A suitable volume to give at least a 2-fold excess for the number of tests being conducted, typically 100-200 mL, is prepared by diluting the cell suspension to 10,000-40,000/mL, and 100 μL/well dispensed into 96 well plates using a programmable 8-channel peristaltic pump, giving 1000-4000 cells/well, leaving column 12 blank. The plates are returned to the incubator for 24 hours to allow the cells to re-attach.
# (§3) The compounds being tested are prepared at 10 mM in DMSO. Aliquots (24 μL) are diluted into 1.2 mL culture medium giving 200 μM, and 10 serial dilutions of 3× performed by transferring 80 μL to 160 μL. Aliquots (100 μL) of each dilution are added to the wells, using an 8-channel pipettor, thus performing a final further 2× dilution, and giving doses ranging from 100 μM to 0.005 μM. Column 11 receives plain culture medium only. Each compound is tested in quadruplicate, each replicate being the average of four wells.
# (§4) After a further 5 days growth, the plates are emptied, and the cells are fixed in 10% trichloroacteic acid for 30 minutes at 4° C. After thorough rinsing in running tap water, the plates are dried, and stained by adding 50 μL of a solution of 0.1% sulphorhodamine-B in 1% acetic acid, for 10 minutes at room temperature. The stain is poured out and the plates thoroughly rinsed under a stream of 1% acetic acid, thus removing unbound stain, and dried. The bound stain is taken into solution by addition of 100 μL Tris buffer pH 8, followed by 10 minutes on a plate-shaker (approximately 500 rpm). The absorbance at 540 nm in each well (being proportional to the number of cells present) is determined using a plate reader.
# (§5) After averaging the blank values in column 12 this was subtracted from all values, and results expressed as a percentage of the untreated value (column 11). […] The GI50 generated by this procedure is the concentration of the drug that produces a percentage control A540 midway between the saturation, and zero-effect plateaus.
# [2] = test system: WM266.4 melanoma cell line (mutant BRAF); assay: Assay C - SRB cell proliferation assay, WM266.4; format: cell-based; details: Homo sapiens, WM 266-4, 120 h; WM266.4, 5 days growth
# Experimental: as §1, §2, §3, §4, §5
# [3] = test system: SW620 human colorectal carcinoma cells (mutant RAS) xenograft; assay: Xenograft study, mutant RAS SW620; format: in vivo, mice; details: for Effect on tumour volume as compared to the control (in words) / Factor of tumour volume reduction as compared to the control: SW620 xenograft; for Factor of tumour volume reduction as compared to the control: over the timescale of the study; for Ratio of: Tumour Volume (Treatment)/Tumour Volume (Control) (mutant RAS SW620 xenograft): athymic mice, gavage once daily for 24 doses
# Experimental: (§6) Biological Methods—Xenograft Studies
# (§7) SW620 human colorectal carcinoma cells (mutant RAS, 7×10^7) or A375M human melanoma cells (mutant BRAF, 10^7) were inoculated sub-cutaneously in suspension (0.2 mL) into the right flank of female Crl:CD1-Foxn1nu athymic mice. Groups were assigned to treatment following stratified allocation of tumour volumes. Treatment with test compound began between days 11-14 post-cell administration. For gavage, a suspension (DMSO:water, 1:19, v/v at 10 m L/kg) was administered. Control animals received a similar dosage of vehicle (DMSO:water, 1:19, v/v). Treatment with test compound was continued once daily for 24 doses.
# [4] = test system: A375M melanoma cell line (mutant BRAF); assay: Assay C - SRB cell proliferation assay, A375M; format: cell-based; details: Homo sapiens, 120 h, 5 days growth
# Experimental: as §1, §2, §3, §4, §5
# [5] = test system: A375M human melanoma cells (mutant BRAF) xenograft; assay: Xenograft study, mutant BRAF A375; format: in vivo, mice; details: for Factor of tumour volume reduction as compared to the control: over the timescale of the study
# Experimental: as §6, §7
SMILES,GI50 [1] [nM],GI50 [2] [nM],Effect on tumour volume as compared to the control (in words) [3],Factor of tumour volume reduction as compared to the control [3],Ratio of: Tumour Volume (Treatment)/Tumour Volume (Control) (mutant RAS SW620 xenograft) [3],GI50 [4] [nM],Factor of tumour volume reduction as compared to the control [5],Effect on tumour volume as compared to the control (in words) [5]
"Cc1ccc(-n2nc(C(C)(C)C)cc2NC(=O)Nc2ccc(Oc3ccnc4[nH]c(=O)n(C)c34)c3ccccc23)cc1 [BB-02, 1-(1-N-p-tolyl-3-tert-butyl-pyrazol-5-yl)-3-(4-(2-oxo-2,3-dihydro-1-N-methyl-1H-imidazo[4,5-b]pyridin-7-yl-oxy)naphthalen-1-yl)urea]",1680,16,statistically significant efficacy,about 1.5,0.66,101,about 1.5,–
"CC(C)(C)c1cc(NC(=O)Nc2ccc(Oc3ccnc4[nH]c(=O)[nH]c34)cc2)n(-c2ccccc2)n1 [XX-01, 1-(5-Tert-butyl-2-phenyl-2H-pyrazol-3-yl)-3-[4-(2-oxo-2,3-dihydro-1H-imidazo[4,5-b]pyridin-7-yloxy)-phenyl]-urea]",840,390,relatively little effect,–,>1,1130,–,–
"Cc1ccc(-n2nc(C(C)(C)C)cc2NC(=O)Nc2ccc(Oc3ccnc4[nH]c(=O)n(C)c34)cc2)cc1 [XX-02, 1-(1-N-p-tolyl-3-tert-butyl-pyrazol-5-yl)-3-(4-(2-oxo-2,3-dihydro-1-N-methyl-1H-imidazo[4,5-b]pyridin-7-yl-oxy)phenyl)urea]",450,66,relatively little effect,–,0.95,250,–,at least to some degree effective
"CC(C)(C)c1cc(NC(=O)Nc2ccc(Oc3ccnc4[nH]c(=O)[nH]c34)cc2)n(-c2ccc(F)cc2)n1 [XX-04, 1-[5-tert-Butyl-2-(4-fluoro-phenyl)-2H-pyrazol-3-yl]-3-[4-(2-oxo-2,3-dihydro-1H-imidazo[4,5-b]pyridin-7-yloxy)-phenyl]urea]",2720,20,relatively little effect,–,0.87,307,–,–
"Cn1c(=O)[nH]c2nccc(Oc3ccc(NC(=O)Nc4cc(C(C)(C)C)nn4-c4ccccc4)c4ccccc34)c21 [BB-01, 1-(3-Tert-butyl-1-phenyl-1H-pyrazol-5-yl)-3-(4-(1-methyl-2-oxo-2,3-dihydro-1H-imidazo[4,5-b]pyridin-7-yloxy)naphthalen-1-yl)urea]",1600,8,–,–,–,52,–,–
"Cn1c(=O)n(C)c2c(Oc3ccc(NC(=O)Nc4cc(C(C)(C)C)nn4-c4ccccc4)c(F)c3)ccnc21 [XX-03, 1-(3-Tert-butyl-1-phenyl-1H-pyrazol-5-yl)-3-(4-(1,3-dimethyl-2-oxo-2,3-dihydro-1H-imidazo[4,5-b]pyridin-7-yloxy)-2-fluorophenyl)urea]",6830,33,relatively little effect,–,0.97,247,–,–
"Cn1c(=O)[nH]c2nccc(Oc3ccc(NC(=O)Nc4cc(C(C)(C)C)nn4-c4ccccc4)c(F)c3)c21 [AA-01, 1-(3-Tert-butyl-1-phenyl-1H-pyrazol-5-yl)-3-(2-fluoro-4-(1-N-methyl-2-oxo-2,3-dihydro-1H-imidazo[4,5-b]pyridin-7-yloxy)phenyl)urea]",167,52,statistically significant efficacy,about 3,0.34,138,about 2.5,–
